According to patent US10189772B2, “Mixtures of chelating agents including an L-enantiomer-rich MGDA, and process for making such mixtures” (BASF SE, priority 2015, dated 2019):
Where a name gives a salt, the structure may show the parent alone. Read-outs that look alike come from different tables or passages of the source.

How the values were obtained:
[1] = aqueous solution, room temperature; cited from earlier work
[2] = ambient temperature, no visible precipitation after 2 weeks
Experimental: In each case, the solubility was calculated to refer to pure MGDA, without hydrate water.
In addition, the concentrations of the saturated solutions at ambient temperature in dependence of the ee value of MGDA and depending on the concentration of (B) were determined.

Row | concentration of saturated solutions ([2]; ee value of MGDA-Na3 11 %, addition of VDA-Na3 5.5 weight-%) [weight-%] | concentration of saturated solutions ([2]; ee value of MGDA-Na3 39 %, addition of VDA-Na3 2.8 weight-%) [weight-%] | concentration of saturated solutions ([2]; ee value of MGDA-Na3 39 %, addition of VDA-Na3 5.5 weight-%) [weight-%] | concentration of saturated solutions ([2]; ee value of MGDA-Na3 39 %, addition of VDA-Na3 8.3 weight-%) [weight-%] | concentration of saturated solutions ([2]; ee value of MGDA-Na3 82 %, addition of VDA-Na3 2.8 weight-%) [weight-%] | concentration of saturated solutions ([2]; ee value of MGDA-Na3 82 %, addition of VDA-Na3 8.3 weight-%) [weight-%] | concentration of saturated solutions ([2]; ee value of MGDA-Na3 82 %, addition of VDA-Na3 zero weight-%) [weight-%] | concentration of saturated solutions ([2]; ee value of MGDA-Na3 96 %, addition of VDA-Na3 5.5 weight-%) [weight-%] | concentration of saturated solutions ([2]; ee value of MGDA-Na3 96 %, addition of VDA-Na3 zero weight-%) [weight-%] | concentration of saturated solutions ([2]; ee value of MGDA-Na3 zero %, addition of VDA-Na3 zero weight-%) [weight-%] | SMILES | concentration of solutions that can be made and stored [1]
1 | – | – | – | – | – | – | – | – | – | – | CC(C(=O)O)N(CC(=O)O)CC(=O)O (racemic) [racemic MGDA trisodium salt, methyl glycine diacetic acid] | about 40 % by weight
2 | 49 | 48 | 47 | 43 | 58 | 53 | 46 | 57 | 49 | ≤40 | CC(C(=O)O)N(CC(=O)O)CC(=O)O (centres unmarked) [MGDA-Na3, methyl glycine diacetic acid] | –
